For assay [1], the system named is Trabecular bone at Femoral Metaphysis. Briefly: Mouse model of glucocorticoid-induced osteoporosis: femur histomorphometry. The conditions noted are these: mice; for % Inhibition of MAR, (+) Inhibitor / % Increase in BFR/BV, (+) Inhibitor / % Increase in dLS/BS, (+) Inhibitor: diet with Compound B; for % Increase in dLS/BS, (−) Inhibitor / % Inhibition of BFR/BV, (−) Inhibitor / % Inhibition of MAR, (−) Inhibitor: control diet. In kind it is in vivo. From the text: (§1) Purpose: The purpose of this experiment was to determine if inhibiting 11β-HSD-1 in mice results in protection from prednisolone-induced bone loss over a 28-day period, while maintaining the same anti-inflammatory efficacy against lipopolysaccharide(LPS)-induced TNFα.
(§2) Animals: Female Swiss Webster mice from Charles River Laboratories (CFW mice) were used in this study. Mice were 10 weeks old at the start of the study. Two identical prednisolone dose responses were run with a vehicle control (n=12), 5, 1.5, and 0.5 mg/kg dosed for 28 days (n=8 each), and 1.5 mg/kg dosed for 27 days (n=8, to determine if prednisolone needed to be on board to affect tumor necrosis factor-alpha(TNFα), procollagen type 1 N-terminal propeptide(P1NP), and Osteocalcin). […] The total number of animals used was 88.
(§3) Experimental Design: All animals were placed on the control diet (Research Diets Rodent Diet with 60 kcal % Fat: D12492i) upon arrival. […] Also on this day, animals were weighed for baselines and ear-tagged for identification. On day 1 of the study, all animals were injected intraperitoneally (i.p.) with 10 mg/kg of calcein (Sigma #C0875) in 2% sodium bicarbonate (Sigma #S6014, dissolved in deionized water). […] On day 27, 4 animals from each vehicle control group were challenged with 5 mg/kg of 11-dehydrocorticosterone (11-DHC [Steraloids #Q3690-000]) p.o., and plasma was collected 30 minutes later for corticosterone analysis by mass spec. […] Thirty minutes later, all groups were challenged with 0.1 mg/kg of LPS (Sigma #L4130) to induce TNFα. […] Right leg bones, left leg bones, and the spinal columns of all mice were collected and stored as follows:
Left leg bones were removed, cleaned, and cut identically to the right leg bones. However, left legs were separated at the knee joint by carefully teasing apart with a scalpel.
Femurs were fixed in 4% paraformaldehyde for 48 hours, and transferred to 30% sucrose for 24 hours before embedding in a CMC (carboxymethylcellulose) block. Blocks were frozen in liquid nitrogen-cooled hexanes (−60° C. or colder) for 3-5 minutes, and stored at −80° C. Femurs were then sectioned on a cryomicrotome.
Bone was measured from 8-10 fields per femur, with each field being 400×500 microns in size. All dynamic measurement calculations were made from scoring the second and third fluorochrome labels, which were administered 11 days apart. OsteoMeasure software was used to obtain all values.
Bone formation rate/bone volume (BFR/BV) refers to the volume of new bone formed per unit of time, and is measured as a percent per day. BFR is the most significant measure of bone formation.
Mineral apposition rate (MAR) refers to the distance between two fluorochrome labels divided by the number of days between label administration, and is indicative of osteoblastic activity.
Double labeled surface/bone surface (dLS/BS) refers to the percentage of trabecular bone surface which is double-labeled, and is another readout indicative of bone formation.

In the next assay the test system is TNFα. Briefly: Mouse model of glucocorticoid-induced osteoporosis: LPS-induced TNFα. The conditions noted are these: mice, LPS 0.1 mg/kg challenge; for % Inhibition of TNFα, (+) Inhibitor: diet with Compound B; for % Inhibition of TNFα, (−) Inhibitor: control diet. In kind it is in vivo.
Text: as §1, §2, §3
TNFα was measured using the Mouse […] Quantikine ELISA kit from R&D Systems. The protocol was followed as outlined in the kit. Samples were read using a Molecular Devices Spectra Max 250 plate reader and Soft Max Pro 4.8 software.

Another assay relates to Osteocalcin. Briefly: Mouse model of glucocorticoid-induced osteoporosis: plasma osteocalcin. In kind it is in vivo. The conditions noted are these: mice; for % Inhibition of Osteocalcin, (+) Inhibitor: diet with Compound B; for % Inhibition of Osteocalcin, (−) Inhibitor: control diet.
Text: as §1, §2, §3
Osteocalcin was measured using the Millipore Milliplex Mouse Osteocalcin Single-Plex Kit. The protocol was followed exactly as outlined in the kit. Samples were read on a BioRad Bio-Plex System, model # Luminex 100 and Bio-Plex Manager 4.1.1 software.

The subject of assay [2] is P1NP (N-terminal propeptide of type I procollagen). The assay can be described thus: Mouse model of glucocorticoid-induced osteoporosis: plasma P1NP. In kind it is in vivo. The conditions noted are these: mice; for % Inhibition of P1NP, (+) Inhibitor: diet with 873 mg Compound B/kg; for % Inhibition of P1NP, (−) Inhibitor: control diet.
Text: as §1, §2, §3
N-terminal propeptide of type I procollagen (PINP) was measured using the Rat/Mouse PINP EIA kit from Immunodiagnostic Systems. The protocol was followed as outlined in the kit, except for that sample dilutions were made in a separate plate instead of directly in the ELISA plate. Samples were read using a Molecular Devices Spectra Max 190 plate reader and Soft Max Pro 5.2 software.

Assay [3] deals with plasma osteocalcin. Briefly: Study A: prednisolone-induced osteocalcin reduction in rats. The conditions noted are these: prednisolone 10 mg/kg po, 4 hour time point. In kind it is in vivo. An excerpt:
Prednisolone (active GC) administration to rats induces a variety of acute physiological effects including an increase in liver tyrosine amino transferase, increase in serum free fatty acids, increase in liver glycogen levels, hyperglycemia, decrease in osteocalcin, among others. Osteocalcin is of particular interest since a decrease in this hormone leads to decreased bone formation, increasing the potential for osteoporosis. Administration of an 11β-HSD-1 inhibitor would be expected to reduce local reactivation of prednisolone from prednisone in the bone or relevant tissue, and thereby reduce loss of osteocalin levels. […] Prednisone is reactivated, however, to prednisolone in the liver, bone and other tissues where 11β-HSD-1 is expressed. By blocking this reactivation through the use of an 11β-HSD-1 inhibitor, the exposure of active glucocorticoid in bone would be minimized. […] To validate this hypothesis, effects of the 11β-HSD-1 inhibitor (compound A) on prednisolone-induced osteocalcin reduction was evaluated in rats using two separate protocols as indicated in the Table 8 below.
In Study A, rats were pre-dosed with Compound A at 30 mg/kg 1 hour prior to administration with the active glucocorticoid, prednisolone, at 10 mg/kg, po. At 2 and 4 hours after dosing prednisolone, rats were sacrificed, and blood evaluated for levels of osteocalcin.

In another assay the test system is insulin sensitivity. The conditions noted are these: humans; cited from earlier work.
For assay [4], the system named is markers of bone resorption. The conditions noted are these: bone samples, healthy human volunteers, orally dosed; cited from earlier work.
Assay [5] concerns inflammation, tissue destruction, bone erosion. The conditions noted are these: animal models of RA; cited from earlier work.
The test system of assay [6] is plasma osteocalcin. The assay can be described thus: Study B: prednisone-induced osteocalcin reduction in rats. In kind it is in vivo. The conditions noted are these: vehicle pre-treatment, prednisone 10 mg/kg po, 4 hours later. From the text:
Prednisolone (active GC) administration to rats induces a variety of acute physiological effects including an increase in liver tyrosine amino transferase, increase in serum free fatty acids, increase in liver glycogen levels, hyperglycemia, decrease in osteocalcin, among others. Osteocalcin is of particular interest since a decrease in this hormone leads to decreased bone formation, increasing the potential for osteoporosis. Administration of an 11β-HSD-1 inhibitor would be expected to reduce local reactivation of prednisolone from prednisone in the bone or relevant tissue, and thereby reduce loss of osteocalin levels. […] Prednisone is reactivated, however, to prednisolone in the liver, bone and other tissues where 11β-HSD-1 is expressed. By blocking this reactivation through the use of an 11β-HSD-1 inhibitor, the exposure of active glucocorticoid in bone would be minimized. This example would pertain to normal older individuals as well where cortisol levels increase with age, and likely contribute to age-dependent osteoporosis. This would be an acute study design. To validate this hypothesis, effects of the 11β-HSD-1 inhibitor (compound A) on prednisolone-induced osteocalcin reduction was evaluated in rats using two separate protocols as indicated in the Table 8 below.

The mark [7] stands for this setting: prednisolone 0.5 mg/kg, p < 0.05 vs. vehicle control.
The mark [8] stands for this setting: prednisolone 5 mg/kg, p < 0.05 vs. (−) inhibitor.
The mark [9] stands for this setting: prednisolone 0.5 mg/kg p.o. daily 28 days.

Marks after values point to notes of the source that are not given here.

As for `CC(C)(Oc1ccc(F)cc1Cl)C(=O)NC1C2CC3CC1CC(S(C)(=O)=O)(C3)C2` (stereo not shown) [Compound B, 2-(2-chloro-4-fluorophenoxy)-2-methyl-N-[(E)-5-(methylsulfonyl)-2-adamantyl]propanamide], the “% Inhibition of MAR, (+) Inhibitor” value in assay [1] (prednisolone 0.5 mg/kg) is recorded as 9%; in assay [1] (prednisolone 5 mg/kg) it was 23%. The “% Increase in BFR/BV, (+) Inhibitor” value in assay [1] (setting [7]) is reported as 47%^#; in assay [1] (setting [8]), 30%*. In addition, the “% Increase in dLS/BS, (+) Inhibitor” value turned out to be 22%^# in [1] (setting [7]) and 46%^# in assay [1] (prednisolone 5 mg/kg, p < 0.05 vs. vehicle control). Further, the entries for the “% Inhibition of TNFα, (+) Inhibitor” value with TNFα (prednisolone 0.5 mg/kg), in the assay on TNFα (prednisolone 5 mg/kg) and in the assay on TNFα (prednisolone […]) were 80%, 98% and 94%, respectively. Besides, the “% Inhibition of Osteocalcin, (+) Inhibitor” value was 18% with Osteocalcin (prednisolone 0.5 mg/kg) and 28%* with Osteocalcin (setting [8]). Moreover, the “% Inhibition of P1NP, (+) Inhibitor” value in [2] (setting [9]) stood at 25%; in [2] (prednisolone […] p.o. daily 28 days) it was 28%.
Turning to `C[C@]12C=CC(=O)C=C1CC[C@@H]1[C@@H]2[C@@H](O)C[C@@]2(C)[C@H]1CC[C@]2(O)C(=O)CO` [Prednisolone, prednisolone, reference compound], the “% Increase in dLS/BS, (−) Inhibitor” value in assay [1] (prednisolone 0.5 mg/kg) and in assay [1] (prednisolone 5 mg/kg) was “No Increase” each time. In addition, the results for the “% Inhibition of BFR/BV, (−) Inhibitor” value in assay [1] (prednisolone 0.5 mg/kg) and in assay [1] (prednisolone 5 mg/kg) were “No Inhibition” and 27%, respectively. Moreover, the entries for the “% Inhibition of MAR, (−) Inhibitor” value in assay [1] (prednisolone 0.5 mg/kg) and in [1] (prednisolone 5 mg/kg) were 33% and 52%, respectively. Further, the “% Inhibition of TNFα, (−) Inhibitor” value with TNFα (prednisolone 0.5 mg/kg) worked out at 80%; with TNFα (prednisolone 5 mg/kg) it was 98%; with TNFα (prednisolone […]), 95%. Moreover, the results for the “% Inhibition of Osteocalcin, (−) Inhibitor” value in the assay on Osteocalcin (prednisolone 0.5 mg/kg) and with Osteocalcin (prednisolone 5 mg/kg) were 10% and 45%, respectively. Moreover, the “plasma osteocalcin after prednisolone” value in the assay with plasma osteocalcin [3] is given as “significant reductions in plasma osteocalcin”. Further, the entries for the “% Inhibition of P1NP, (−) Inhibitor” value in assay [2] (setting [9]) and in assay [2] (prednisolone 5 mg/kg p.o. daily 28 days) were 33% and 51%, respectively.
`CC1(C)[C@@H](OC(=O)CCC(=O)O)CC[C@]2(C)[C@H]3C(=O)C=C4[C@@H]5C[C@@](C)(C(=O)O)CC[C@]5(C)CC[C@@]4(C)[C@]3(C)CC[C@@H]12` [carbenoxolone]: the insulin sensitivity entry with insulin sensitivity was “improves insulin sensitivity”. For the same compound, the “markers of bone resorption” value in assay [4] is reported as “significant decrease in markers of bone resorption”.
In the case of `CC1(C)[C@@H](O)CC[C@]2(C)[C@H]3C(=O)C=C4[C@@H]5C[C@@](C)(C(=O)O)CC[C@]5(C)CC[C@@]4(C)[C@]3(C)CC[C@@H]12` [glycyrrhetinic acid], in [5], the “effect on inflammation, tissue destruction and bone erosion” value was “reduced inflammation and tissue destruction as well as bone erosion”.
Turning to `C[C@]12C=CC(=O)C=C1CC[C@@H]1[C@@H]2C(=O)C[C@@]2(C)[C@H]1CC[C@]2(O)C(=O)CO` [prednisone], the “plasma osteocalcin after prednisone challenge” value in the assay with plasma osteocalcin [6] is given as “significant reduction in plasma osteocalcin”.

These data come from US8871208B2, “11-β-hydroxysteroid dehydrogenase type 1 (11β-HSD1) inhibitors and uses thereof” (AbbVie Inc., priority 2009, dated 2014).
